Results from article PMC5218480 (PLoS ONE, 2017).

Tested on: MV-4-11 cells
Assay: Gene expression microarray analysis (Affymetrix PrimeView) and GSEA
Assay type: cell-based, human
Design: RFU PODN (11730768_x_at) / Fold change /veh PODN (11730768_x_at) / RFU LINC00158 (11744669_a_at) / Fold change /veh LINC00158 (11744669_a_at) / RFU DUSP10 (11751237_a_at) / Fold change /veh DUSP10 (11751237_a_at) / RFU ID3 (11757404_x_at) / Fold change /veh ID3 (11757404_x_at) / RFU PLEKHG5 (11737974_s_at) / Fold change /veh PLEKHG5 (11737974_s_at) / RFU LRRC4B (11730491_at) / Fold change /veh LRRC4B (11730491_at) / RFU GIMAP4 (11747438_a_at) / Fold change /veh GIMAP4 (11747438_a_at) / RFU KRT8 (11758183_x_at) / Fold change /veh KRT8 (11758183_x_at) / RFU CNN1 (11734310_a_at) / Fold change /veh CNN1 (11734310_a_at) / RFU VPS37D (11726825_at) / Fold change /veh VPS37D (11726825_at) / RFU C10orf10 (11716522_x_at) / Fold change /veh C10orf10 (11716522_x_at) / RFU KIR2DL2 /// KIR2DL4 /// KIR2DL5A /// KIR2DL5B /// KIR2DS1 /// KIR2DS2 /// KIR2DS3 /// KIR2DS4 /// KIR3DL3 /// KIR3DL3 /// KIR3DS1 (11738374_at) / Fold change /veh KIR2DL2 /// KIR2DL4 /// KIR2DL5A /// KIR2DL5B /// KIR2DS1 /// KIR2DS2 /// KIR2DS3 /// KIR2DS4 /// KIR3DL3 /// KIR3DL3 /// KIR3DS1 (11738374_at) / RFU C1QL1 (11718748_at) / Fold change /veh C1QL1 (11718748_at) / RFU TMPRSS4 (11747572_a_at) / Fold change /veh TMPRSS4 (11747572_a_at) / RFU HAMP (11756126_x_at) / Fold change /veh HAMP (11756126_x_at) / RFU RNFT2 (11725882_a_at) / Fold change /veh RNFT2 (11725882_a_at) / RFU NR4A2 (11747474_a_at) / Fold change /veh NR4A2 (11747474_a_at) / RFU ABCC12 (11746883_a_at) / Fold change /veh ABCC12 (11746883_a_at) / RFU TMEM136 (11760407_x_at) / Fold change /veh TMEM136 (11760407_x_at) / RFU CLDN22 /// WWC2 (11732394_at) / Fold change /veh CLDN22 /// WWC2 (11732394_at) / RFU HLA-DPB1 (11760878_x_at) / Fold change /veh HLA-DPB1 (11760878_x_at) / RFU SPINT1 (11716480_a_at) / Fold change /veh SPINT1 (11716480_a_at) / RFU GAP43 (11754022_s_at) / Fold change /veh GAP43 (11754022_s_at) / RFU A4GNT (11735810_at) / Fold change /veh A4GNT (11735810_at) / RFU PRB3 (11715151_x_at) / Fold change /veh PRB3 (11715151_x_at) / RFU TUBB4B (11761932_at) / Fold change /veh TUBB4B (11761932_at) / RFU CAPN14 (11732068_a_at) / Fold change /veh CAPN14 (11732068_a_at) / RFU TMCC2 (11721928_a_at) / Fold change /veh TMCC2 (11721928_a_at) / RFU IRGQ (11745062_a_at) / Fold change /veh IRGQ (11745062_a_at) / RFU FAM174B (11720279_a_at) / Fold change /veh FAM174B (11720279_a_at) / RFU TMPRSS4 (11748680_a_at) / Fold change /veh TMPRSS4 (11748680_a_at) / RFU FAM212B (11763350_a_at) / Fold change /veh FAM212B (11763350_a_at) / RFU PLEKHG5 (11743358_a_at) / Fold change /veh PLEKHG5 (11743358_a_at) / RFU ZSCAN30 (11745921_a_at) / Fold change /veh ZSCAN30 (11745921_a_at) / RFU CMKLR1 (11741424_a_at) / Fold change /veh CMKLR1 (11741424_a_at) / RFU LOC101060620 /// MAPK8IP1 (11723275_at) / Fold change /veh LOC101060620 /// MAPK8IP1 (11723275_at) / RFU SPTSSB (11747773_x_at) / Fold change /veh SPTSSB (11747773_x_at) / RFU PRSS12 (11739890_at) / Fold change /veh PRSS12 (11739890_at) / RFU BIN1 (11741810_x_at) / Fold change /veh BIN1 (11741810_x_at) / RFU WNT11 (11732464_a_at) / Fold change /veh WNT11 (11732464_a_at) / RFU C10orf10 (11716521_a_at) / Fold change /veh C10orf10 (11716521_a_at) / RFU C5orf56 (11738089_at) / Fold change /veh C5orf56 (11738089_at) / RFU CYB561 (11721691_x_at) / Fold change /veh CYB561 (11721691_x_at) / RFU ANKRD19P (11752326_a_at) / Fold change /veh ANKRD19P (11752326_a_at) / RFU OR2T12 /// OR2T33 /// OR2T8 (11738714_s_at) / Fold change /veh OR2T12 /// OR2T33 /// OR2T8 (11738714_s_at) / RFU VCAN (11748164_a_at) / Fold change /veh VCAN (11748164_a_at) / RFU JSRP1 (11732532_at) / Fold change /veh JSRP1 (11732532_at) / RFU KRTAP10-11 (11738290_x_at) / Fold change /veh KRTAP10-11 (11738290_x_at) / RFU MYO3A (11730013_a_at) / Fold change /veh MYO3A (11730013_a_at) / RFU EBF3 (11725865_a_at) / Fold change /veh EBF3 (11725865_a_at) / RFU CAMK2N1 (11719241_x_at) / Fold change /veh CAMK2N1 (11719241_x_at) / RFU C5orf56 (11738088_a_at) / Fold change /veh C5orf56 (11738088_a_at) / RFU OLFML3 (11715873_a_at) / Fold change /veh OLFML3 (11715873_a_at) / RFU LOC100653217 /// NTM (11731650_a_at) / Fold change /veh LOC100653217 /// NTM (11731650_a_at) / RFU MAPK11 (11762145_a_at) / Fold change /veh MAPK11 (11762145_a_at) / RFU FIZ1 (11724087_x_at) / Fold change /veh FIZ1 (11724087_x_at) / RFU OASL (11726364_x_at) / Fold change /veh OASL (11726364_x_at) / RFU SOX15 (11748057_x_at) / Fold change /veh SOX15 (11748057_x_at) / RFU CD79A (11719716_a_at) / Fold change /veh CD79A (11719716_a_at) / RFU HIST1H1D (11736915_at) / Fold change /veh HIST1H1D (11736915_at) / RFU CASKIN2 (11723855_a_at) / Fold change /veh CASKIN2 (11723855_a_at) / RFU LOC730098 (11760151_x_at) / Fold change /veh LOC730098 (11760151_x_at) / RFU OR4N2 (11742367_at) / Fold change /veh OR4N2 (11742367_at) / RFU PRRT2 (11749266_a_at) / Fold change /veh PRRT2 (11749266_a_at) / RFU SNX32 (11753110_a_at) / Fold change /veh SNX32 (11753110_a_at) / RFU CDHR5 (11726645_a_at) / Fold change /veh CDHR5 (11726645_a_at) / RFU RCAN1 (11760418_a_at) / Fold change /veh RCAN1 (11760418_a_at) / RFU FAM167A (11723789_a_at) / Fold change /veh FAM167A (11723789_a_at) / RFU FAM26E (11764081_at) / Fold change /veh FAM26E (11764081_at) / RFU ISYNA1 (11749810_s_at) / Fold change /veh ISYNA1 (11749810_s_at) / RFU ACY1 (11761880_at) / Fold change /veh ACY1 (11761880_at) / RFU 11764098_at / Fold change /veh 11764098_at / RFU SAMD14 (11745864_x_at) / Fold change /veh SAMD14 (11745864_x_at) / RFU NPB (11741838_a_at) / Fold change /veh NPB (11741838_a_at) / RFU TMPRSS6 (11731388_a_at) / Fold change /veh TMPRSS6 (11731388_a_at) / RFU KRTAP10-2 (11738614_at) / Fold change /veh KRTAP10-2 (11738614_at) / RFU ARHGAP8 /// PRR5-ARHGAP8 (11727945_x_at) / Fold change /veh ARHGAP8 /// PRR5-ARHGAP8 (11727945_x_at) / RFU KRTAP5-7 /// NADSYN1 (11734609_at) / Fold change /veh KRTAP5-7 /// NADSYN1 (11734609_at) / RFU RASL12 (11751679_a_at) / Fold change /veh RASL12 (11751679_a_at) / RFU CDKN2B (11736163_a_at) / Fold change /veh CDKN2B (11736163_a_at) / RFU PRF1 (11729649_at) / Fold change /veh PRF1 (11729649_at) / RFU, ZNF638 /// ZNF638-IT1 / Fold change vs veh, ZNF638 /// ZNF638-IT1 / RFU, PANK3 / Fold change vs veh, PANK3 / RFU, SH3YL1 / Fold change vs veh, SH3YL1 / RFU, ZEB2 / Fold change vs veh, ZEB2 / RFU, NRIP1 / Fold change vs veh, NRIP1 / RFU, PTTG1IP / Fold change vs veh, PTTG1IP / RFU, CAPN2 / Fold change vs veh, CAPN2 / RFU, MED14 / Fold change vs veh, MED14 / RFU, SNORA58 / Fold change vs veh, SNORA58 / RFU, C1orf63 / Fold change vs veh, C1orf63 / RFU, LRRFIP1 / Fold change vs veh, LRRFIP1 / RFU, NDUFAF7 / Fold change vs veh, NDUFAF7 / RFU, SLC12A2 / Fold change vs veh, SLC12A2 / RFU, IBTK / Fold change vs veh, IBTK / RFU, ESF1 / Fold change vs veh, ESF1 / Fold change vs veh, TMEM50B / RFU, TAOK1 / Fold change vs veh, TAOK1 / RFU, ACBD3 / Fold change vs veh, ACBD3 / RFU, TMA16 / Fold change vs veh, TMA16 / RFU, RWDD3 / Fold change vs veh, RWDD3 / RFU, BCAT1 / Fold change vs veh, BCAT1 / RFU, EDEM3 / Fold change vs veh, EDEM3 / RFU, TMEM33 / Fold change vs veh, TMEM33 / RFU, WDR75 / Fold change vs veh, WDR75 / RFU, AHCTF1 / Fold change vs veh, AHCTF1 / RFU, TFRC / Fold change vs veh, TFRC / RFU, ZDHHC17 / Fold change vs veh, ZDHHC17 / RFU, NOM1 / Fold change vs veh, NOM1 / RFU, ARL8B / Fold change vs veh, ARL8B / RFU, ZBTB11 / Fold change vs veh, ZBTB11 / RFU, TAMM41 / Fold change vs veh, TAMM41 / RFU, KIAA1704 /// LOC100996395 / Fold change vs veh, KIAA1704 /// LOC100996395 / RFU, ING1 / Fold change vs veh, ING1 / RFU, TRMT61B / Fold change vs veh, TRMT61B / RFU, FUBP3 / Fold change vs veh, FUBP3 / RFU, TP53 / Fold change vs veh, TP53 / RFU, TNKS2 / Fold change vs veh, TNKS2 / RFU, ZFP14 / Fold change vs veh, ZFP14 / RFU, ACTR2 / Fold change vs veh, ACTR2 / RFU, PPP3R1 / Fold change vs veh, PPP3R1 / RFU, PIK3R1 / Fold change vs veh, PIK3R1 / RFU, HNRNPA1 / Fold change vs veh, HNRNPA1 / RFU, RNF170 / Fold change vs veh, RNF170 / RFU, ZNF28 / Fold change vs veh, ZNF28 / RFU, RNGTT / Fold change vs veh, RNGTT / RFU, OGT / Fold change vs veh, OGT / RFU, BRD1 / Fold change vs veh, BRD1 / RFU, MARS / Fold change vs veh, MARS / RFU, ZNF655 / Fold change vs veh, ZNF655 / RFU, FAHD1 / Fold change vs veh, FAHD1 / RFU, BDP1 / Fold change vs veh, BDP1 / RFU, LRRCC1 / Fold change vs veh, LRRCC1 / RFU, ARID1A / Fold change vs veh, ARID1A / RFU, ZNF146 / Fold change vs veh, ZNF146 / RFU, ZNF330 / Fold change vs veh, ZNF330 / RFU, GPN3 / Fold change vs veh, GPN3 / RFU, C9orf123 / Fold change vs veh, C9orf123 / RFU, N4BP2L2 / Fold change vs veh, N4BP2L2 / RFU, ARFIP1 / Fold change vs veh, ARFIP1 / RFU, FAM179B / Fold change vs veh, FAM179B / RFU, BCL10 / Fold change vs veh, BCL10 / RFU, UHRF1BP1L / Fold change vs veh, UHRF1BP1L / RFU, BET1 / Fold change vs veh, BET1 / RFU, CNOT2 / Fold change vs veh, CNOT2 / RFU, ZNF268 / Fold change vs veh, ZNF268 / Fold change vs veh, ZNF507 / RFU, DGCR2 / Fold change vs veh, DGCR2 / RFU, WDSUB1 / Fold change vs veh, WDSUB1 / Fold change vs veh, HSP90B1 /// MIR3652 / RFU, ADSS / Fold change vs veh, ADSS / RFU, GK / Fold change vs veh, GK / RFU, ZNF148 / Fold change vs veh, ZNF148 / RFU, TAF9 / Fold change vs veh, TAF9 / RFU, SLC1A5 / Fold change vs veh, SLC1A5 / RFU, SLMO2 / Fold change vs veh, SLMO2 / RFU, ABCC4 / Fold change vs veh, ABCC4 / RFU, LOC101060439 /// RAP1B / Fold change vs veh, LOC101060439 /// RAP1B / RFU, RFX7 / Fold change vs veh, RFX7 / RFU, GTPBP10 / Fold change vs veh, GTPBP10 / RFU, CNEP1R1 / Fold change vs veh, CNEP1R1 / RFU, BIVM-ERCC5 /// ERCC5 / Fold change vs veh, BIVM-ERCC5 /// ERCC5 / RFU, ILF3 / Fold change vs veh, ILF3 / RFU 11762660_at / Fold change /veh 11762660_at / RFU VCAN (11757783_s_at) / Fold change /veh VCAN (11757783_s_at) / RFU DDX43 (11728927_at) / Fold change /veh DDX43 (11728927_at) / RFU KRT8 (11758188_x_at) / Fold change /veh KRT8 (11758188_x_at) / RFU NKD1 (11759106_at) / Fold change /veh NKD1 (11759106_at) / RFU SRD5A1 (11742802_a_at) / Fold change /veh SRD5A1 (11742802_a_at) / RFU TPSAB1 /// TPSB2 (11721975_s_at) / Fold change /veh TPSAB1 /// TPSB2 (11721975_s_at) / RFU GSTM3 (11746129_a_at) / Fold change /veh GSTM3 (11746129_a_at) / RFU IL23R (11737362_x_at) / Fold change /veh IL23R (11737362_x_at) / RFU TMEM51 (11727254_a_at) / Fold change /veh TMEM51 (11727254_a_at) / RFU PIWIL2 (11732686_x_at) / Fold change /veh PIWIL2 (11732686_x_at) / RFU ORM1 (11744905_x_at) / Fold change /veh ORM1 (11744905_x_at) / RFU CCDC152 (11743942_at) / Fold change /veh CCDC152 (11743942_at) / RFU ECM1 (11717891_a_at) / Fold change /veh ECM1 (11717891_a_at) / RFU IL23R (11748794_a_at) / Fold change /veh IL23R (11748794_a_at) / RFU TNFAIP8L3 (11732012_x_at) / Fold change /veh TNFAIP8L3 (11732012_x_at) / RFU MBOAT4 (11741988_at) / Fold change /veh MBOAT4 (11741988_at) / RFU 11764193_at / Fold change /veh 11764193_at / RFU TMEM53 (11763286_at) / Fold change /veh TMEM53 (11763286_at) / RFU MAGEB2 (11727129_at) / Fold change /veh MAGEB2 (11727129_at) / RFU TMEM200A (11744735_a_at) / Fold change /veh TMEM200A (11744735_a_at) / RFU CCDC152 (11751479_a_at) / Fold change /veh CCDC152 (11751479_a_at) / RFU FAM211A (11726209_a_at) / Fold change /veh FAM211A (11726209_a_at) / RFU RGS16 (11746705_a_at) / Fold change /veh RGS16 (11746705_a_at) / RFU VCAN (11755009_s_at) / Fold change /veh VCAN (11755009_s_at) / RFU RHOB (11743442_s_at) / Fold change /veh RHOB (11743442_s_at) / RFU RGS16 (11720943_a_at) / Fold change /veh RGS16 (11720943_a_at) / RFU RGS16 (11720944_at) / Fold change /veh RGS16 (11720944_at) / RFU, VPS4B / Fold change vs veh, VPS4B / RFU, CREB1 / Fold change vs veh, CREB1 / RFU, DNAJC13 / Fold change vs veh, DNAJC13 / RFU, GNAQ / Fold change vs veh, GNAQ / RFU, CDK5R1 / Fold change vs veh, CDK5R1 / RFU, ZRANB3 / Fold change vs veh, ZRANB3 / RFU, CUL4A / Fold change vs veh, CUL4A / RFU, CCNY / Fold change vs veh, CCNY / RFU, UFL1 / Fold change vs veh, UFL1 / RFU, COG3 / Fold change vs veh, COG3 / RFU, DIAPH2 / Fold change vs veh, DIAPH2 / RFU, SKA2 / Fold change vs veh, SKA2 / RFU, AFF3 / Fold change vs veh, AFF3 / RFU, LMF1 / Fold change vs veh, LMF1 / RFU, IPO11 / Fold change vs veh, IPO11 / RFU, DFFB / Fold change vs veh, DFFB / RFU, FOXP1 / Fold change vs veh, FOXP1 / RFU, CARD8 / Fold change vs veh, CARD8 / RFU, STRN3 / Fold change vs veh, STRN3 / RFU, ADK / Fold change vs veh, ADK / RFU, RASSF2 / Fold change vs veh, RASSF2 / RFU, WIPF1 / Fold change vs veh, WIPF1 / RFU, LARP1B / Fold change vs veh, LARP1B / RFU, RASA1 / Fold change vs veh, RASA1 / RFU, RB1 / Fold change vs veh, RB1 / RFU, PPFIA1 / Fold change vs veh, PPFIA1 / RFU, MAT2A / Fold change vs veh, MAT2A / RFU, CCT5 / Fold change vs veh, CCT5 / RFU, WDR92 / Fold change vs veh, WDR92 / RFU, CUX1 / Fold change vs veh, CUX1 / RFU, TTC7A / Fold change vs veh, TTC7A / RFU, TMEM135 / Fold change vs veh, TMEM135 / RFU, DEPTOR / Fold change vs veh, DEPTOR / RFU, CPM / Fold change vs veh, CPM / RFU, DNAJB6 / Fold change vs veh, DNAJB6 / RFU, CACNA2D3 / Fold change vs veh, CACNA2D3 / RFU, DTX4 / Fold change vs veh, DTX4 / RFU, TFCP2 / Fold change vs veh, TFCP2 / RFU, GMCL1 /// GMCL1P1 / Fold change vs veh, GMCL1 /// GMCL1P1 / RFU, AEBP2 / Fold change vs veh, AEBP2 / RFU, SNHG1 /// SNORD22 /// SNORD25 /// SNORD26 /// SNORD27 /// SNORD28 /// SNORD29 /// SNORD31 / Fold change vs veh, SNHG1 /// SNORD22 /// SNORD25 /// SNORD26 /// SNORD27 /// SNORD28 /// SNORD29 /// SNORD31 / Fold change (Aza/veh), C12orf56 (ProbeSet 11735607_a_at) / Fold change (ACY-1035/veh), C12orf56 (ProbeSet 11735607_a_at) / Fold change (Aza/veh), FGFR1OP (ProbeSet 11751329_s_at) / Fold change (ACY-1035/veh), FGFR1OP (ProbeSet 11751329_s_at) / Fold change (Aza/veh), VPS36 (ProbeSet 11739960_a_at) / Fold change (ACY-1035/veh), VPS36 (ProbeSet 11739960_a_at) / RFU SYPL1 (11715823_x_at) / Fold change /veh SYPL1 (11715823_x_at) / RFU IGFBP7 (11715501_s_at) / Fold change /veh IGFBP7 (11715501_s_at) / RFU REEP3 (11722064_at) / Fold change /veh REEP3 (11722064_at) / RFU IGLL1 (11728026_x_at) / Fold change /veh IGLL1 (11728026_x_at): dose or concentration left out as unconfirmed
Settings: ProbeSet 11762504_a_at; LIST D

SMILES: Nc1ccc(-c2cccs2)cc1NC(=O)c1ccc2c(c1)cc(C1CC1)n2CCN1CCOCC1 [ACY-1035]
- RFU, ZRANB3: 82.93 RFU
